These results are taken from ChEMBL document CHEMBL5223181, “Incorporation of an Isohexide Subunit Improves the Drug-like Properties of Bioactive Compounds” (ACS Med Chem Lett, 2023).

Converted amounts (≈) assume the structure as drawn. A value given as a limit tells only on which side of the number the result lay.

Series [1] can be described thus: Dissociation constant, pKa of the compound at 10 mM incubated for 16 hrs with shaking by HPLC-UV analysis. In kind it is physicochemical.
Series [2] can be described thus: Solubility of compound in PBS at pH 7.4 at 30 uM incubated for 90 mins by HPLC-UV analysis. In kind it is physicochemical.
Series [3] can be described thus: Solubility in simulated gastric fluid at pH 1.2 at 30 uM incubated for 90 mins by HPLC-UV analysis. In kind it is ADME.
Series [4] in a line: Solubility in simulated intestinal fluid at pH 6.8 at 30 uM incubated for 90 mins by HPLC-UV analysis. In kind it is ADME.
The nature of series [5]: Octanol/water partition coefficient, logD of the compound at pH 7.4 at 10 mM incubated for 16 hrs with shaking by HPLC-UV analysis. In kind it is physicochemical.
A short description of series [6]: Apparent permeability across apical to basolateral side in dog MDCK-MDR1 cells at 5 uM incubated for 60 mins by LC-MS/MS analysis. In kind it is ADME, cell-based, Canis lupus familiaris.
Series [7] in a line: AUC (0-6 hrs) in C57BL/6 mouse plasma at 50 mg/kg,po and measured upto 24 hrs by LC-MS/MS analysis. In kind it is ADME, organism-based. Further details: dose 50 mg/kg, time < 24 hrs, route po.
The nature of series [8]: Cmax in C57BL/6 mouse plasma at 50 mg/kg,po and measured upto 24 hrs by LC-MS/MS analysis. In kind it is ADME, organism-based. Also noted: dose 50 mg/kg, time < 24 hrs, route po.
The nature of series [9]: Tmax in C57BL/6 mouse plasma at 50 mg/kg,po and measured upto 24 hrs by LC-MS/MS analysis. In kind it is ADME, organism-based.
Series [10] can be described thus: Half life in C57BL/6 mouse plasma at 50 mg/kg,po and measured upto 24 hrs by LC-MS/MS analysis. In kind it is ADME, organism-based.
Series [11] in a line: Oral bioavailability in C57BL/6 mouse plasma at 50 mg/kg and measured upto 24 hrs by LC-MS/MS analysis. In kind it is ADME, organism-based.
Series [12] can be described thus: Solubility of compound in PBS at pH 9.0 at 30 uM incubated for 90 mins by HPLC-UV analysis. In kind it is physicochemical.
Series [13] can be described thus: Solubility in simulated gastric fluid at pH 1.2 at 30 uM incubated for 90 mins in presence of 0.5% SDS by HPLC-UV analysis. In kind it is ADME.
Series [14] in a line: Solubility in simulated intestinal fluid at pH 6.8 at 30 uM incubated for 90 mins in presence of 0.5% SDS by HPLC-UV analysis. In kind it is ADME.
Series [15] is described as follows: Terminal half life in C57BL/6 mouse at 61 mg/kg, po and measured upto 24 hrs by LC-MS/MS analysis. In kind it is ADME, organism-based. The note with it: in vivo, read-out: beta t1/2 (converted).
Series [16] is described as follows: AUC (0-t) in C57BL/6 mouse at 61 mg/kg, po and measured for 4 to 10 hrs by LC-MS/MS analysis. As to conditions: in vivo. Also noted: time lower 4 hrs, dose 61 mg/kg, time upper 10 hrs, route po. In kind it is ADME, organism-based.
Series [17] in a line: AUC (0-infinity) in C57BL/6 mouse at 61 mg/kg, po and measured upto 24 hrs by LC-MS/MS analysis. In kind it is ADME, organism-based. Further details: dose 61 mg/kg, time < 24 hrs, route po. The note with it: in vivo.
Series [18] can be described thus: Cmax in C57BL/6 mouse at 61 mg/kg, po and measured upto 24 hrs by LC-MS/MS analysis. In kind it is ADME, organism-based. Further details: dose 61 mg/kg, time < 24 hrs, route po. As to conditions: in vivo.
Series [19] has as its target Epidermal growth factor receptor (Homo sapiens, UniProt P00533). Briefly: Inhibition of human EGFR.
Series [20] is described as follows: Apparent permeability of compound at 20 mM and measured after 16 hrs by PAMPA assay. In kind it is ADME. For orientation: PAMPA measures passive passage across an artificial lipid membrane.
Series [21] is described as follows: Terminal half life in C57BL/6 mouse at 80 mg/kg, po and measured upto 24 hrs by LC-MS/MS analysis. In kind it is ADME, organism-based. As to conditions: in vivo, read-out: beta t1/2 (converted).
The nature of series [22]: AUC (0-t) in C57BL/6 mouse at 80 mg/kg, po and measured for 4 to 10 hrs by LC-MS/MS analysis. In kind it is ADME, organism-based. Also noted: time upper 10 hrs, dose 80 mg/kg, time lower 4 hrs, route po. As to conditions: in vivo.
Series [23] can be described thus: AUC (0-infinity) in C57BL/6 mouse at 80 mg/kg, po and measured upto 24 hrs by LC-MS/MS analysis. As to conditions: in vivo. Further details: time < 24 hrs, dose 80 mg/kg, route po. In kind it is ADME, organism-based.
A short description of series [24]: Cmax in C57BL/6 mouse at 80 mg/kg, po and measured upto 24 hrs by LC-MS/MS analysis. In kind it is ADME, organism-based. Further details: time < 24 hrs, dose 80 mg/kg, route po. As to conditions: in vivo.
Series [25] in a line: Prodrug conversion in C57BL/6 mouse plasma assessed as AUC (0 to 6 hrs) of (S)-2-(2-chloro-6-methylbenzamido)-3-(4-(1,3,6-trimethyl-2,4-dioxo-1,2,3,4-tetrahydropyrimidin-5-yl)phenyl)propanoic acid metabolite at 63.5 mg/kg,po and measured upto 24 hrs by LC-MS/MS analysis. In kind it is ADME, organism-based. Further details: time < 24 hrs, dose 63.5 mg/kg, route po. The note with it: in vivo.

Series [26] in a line: Prodrug conversion in C57BL/6 mouse plasma assessed as Cmax of (S)-2-(2-chloro-6-methylbenzamido)-3-(4-(1,3,6-trimethyl-2,4-dioxo-1,2,3,4-tetrahydropyrimidin-5-yl)phenyl)propanoic acid metabolite at 63.5 mg/kg,po and measured upto 24 hrs by LC-MS/MS analysis. The note with it: in vivo. Further details: dose 63.5 mg/kg, time < 24 hrs, route po. In kind it is ADME, organism-based.

Series [27] in a line: Prodrug conversion in C57BL/6 mouse plasma assessed as Tmax of (S)-2-(2-chloro-6-methylbenzamido)-3-(4-(1,3,6-trimethyl-2,4-dioxo-1,2,3,4-tetrahydropyrimidin-5-yl)phenyl)propanoic acid metabolite at 63.5 mg/kg,po and measured upto 24 hrs by LC-MS/MS analysis. In kind it is ADME, organism-based. The note with it: in vivo.
A short description of series [28]: Prodrug conversion in C57BL/6 mouse plasma assessed as half life of (S)-2-(2-chloro-6-methylbenzamido)-3-(4-(1,3,6-trimethyl-2,4-dioxo-1,2,3,4-tetrahydropyrimidin-5-yl)phenyl)propanoic acid metabolite at 63.5 mg/kg,po and measured upto 24 hrs by LC-MS/MS analysis. In kind it is ADME, organism-based. As to conditions: in vivo.
Series [29] is described as follows: Oral bioavailability in C57BL/6 mouse plasma at 63.5 mg/kg and measured upto 24 hrs by LC-MS/MS analysis. In kind it is ADME, organism-based.
Series [30] in a line: Prodrug conversion in C57BL/6 mouse plasma assessed as(S)-2-(2-chloro-6-methylbenzamido)-3-(4-(1,3,6-trimethyl-2,4-dioxo-1,2,3,4-tetrahydropyrimidin-5-yl)phenyl)propanoic acid metabolite level at 100 mg/kg, po and measured after 3 hrs LC-MS/MS analysis. In kind it is ADME, organism-based. As to conditions: in vivo.
The nature of series [31]: Prodrug conversion in C57BL/6 mouse plasma assessed as (S)-2-(2-chloro-6-methylbenzamido)-3-(4-(1,3,6-trimethyl-2,4-dioxo-1,2,3,4-tetrahydropyrimidin-5-yl)phenyl)propanoic acid metabolite level at 100 mg/kg, po and measured after 6 hrs LC-MS/MS analysis. In kind it is ADME, organism-based. The note with it: in vivo.
Series [32] can be described thus: Prodrug conversion in C57BL/6 mouse colon assessed as (S)-2-(2-chloro-6-methylbenzamido)-3-(4-(1,3,6-trimethyl-2,4-dioxo-1,2,3,4-tetrahydropyrimidin-5-yl)phenyl)propanoic acid metabolite level at 100 mg/kg, po and measured after 3 hrs LC-MS/MS analysis. In kind it is ADME, organism-based. The note with it: in vivo.
The nature of series [33]: Prodrug conversion in C57BL/6 mouse colon assessed as (S)-2-(2-chloro-6-methylbenzamido)-3-(4-(1,3,6-trimethyl-2,4-dioxo-1,2,3,4-tetrahydropyrimidin-5-yl)phenyl)propanoic acid metabolite level at 100 mg/kg, po and measured after 6 hrs LC-MS/MS analysis. The note with it: in vivo. In kind it is ADME, organism-based.

Chain of Epidermal growth factor receptor (P00533 whole entry): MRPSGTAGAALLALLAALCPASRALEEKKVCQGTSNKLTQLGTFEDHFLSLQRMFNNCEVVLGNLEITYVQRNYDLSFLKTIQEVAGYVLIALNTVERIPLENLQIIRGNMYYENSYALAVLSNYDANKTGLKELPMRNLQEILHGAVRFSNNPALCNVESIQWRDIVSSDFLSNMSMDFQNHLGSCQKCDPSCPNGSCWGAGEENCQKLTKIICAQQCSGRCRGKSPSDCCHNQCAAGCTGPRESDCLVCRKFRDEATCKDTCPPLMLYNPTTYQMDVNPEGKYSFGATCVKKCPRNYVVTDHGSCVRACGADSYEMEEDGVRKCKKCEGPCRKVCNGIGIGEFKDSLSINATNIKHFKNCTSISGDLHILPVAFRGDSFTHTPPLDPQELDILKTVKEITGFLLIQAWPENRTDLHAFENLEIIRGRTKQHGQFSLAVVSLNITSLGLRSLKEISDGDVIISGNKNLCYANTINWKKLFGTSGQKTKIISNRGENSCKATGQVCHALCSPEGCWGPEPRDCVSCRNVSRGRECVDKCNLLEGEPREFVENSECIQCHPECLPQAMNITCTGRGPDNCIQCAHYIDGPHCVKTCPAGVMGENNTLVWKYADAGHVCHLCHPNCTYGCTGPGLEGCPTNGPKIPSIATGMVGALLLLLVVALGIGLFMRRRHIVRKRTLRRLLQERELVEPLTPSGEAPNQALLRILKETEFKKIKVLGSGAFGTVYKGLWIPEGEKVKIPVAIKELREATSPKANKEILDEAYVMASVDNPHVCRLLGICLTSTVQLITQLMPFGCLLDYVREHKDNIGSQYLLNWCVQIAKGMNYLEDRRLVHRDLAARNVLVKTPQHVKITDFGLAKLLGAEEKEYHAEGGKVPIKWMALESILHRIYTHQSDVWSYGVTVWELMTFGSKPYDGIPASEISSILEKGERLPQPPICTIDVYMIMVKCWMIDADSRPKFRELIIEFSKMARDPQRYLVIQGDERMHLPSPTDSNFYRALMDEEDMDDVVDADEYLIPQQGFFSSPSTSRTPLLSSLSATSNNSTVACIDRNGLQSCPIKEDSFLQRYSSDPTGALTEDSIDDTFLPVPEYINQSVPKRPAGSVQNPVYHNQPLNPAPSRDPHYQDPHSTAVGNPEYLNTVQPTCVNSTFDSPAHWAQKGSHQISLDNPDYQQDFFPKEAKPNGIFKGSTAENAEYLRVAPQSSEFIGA

Usually pKa stands for the pH at which an ionisable group is half protonated. A higher pKa goes with a weaker acid or stronger base. As usually defined, the solubility is the dissolved amount per volume that the medium holds. Broadly, the logD is the decadic logarithm of the distribution of all forms, ionised or not, between an organic phase and buffer at a given pH. Higher therefore signals a more lipophilic compound. The Papp A→B is the apparent permeability from the apical to the basolateral side of a cell layer. In general, AUC(0-t) refers to exposure summed from dosing to a finite time, without extrapolation to infinity. Read a low AUC(0-t) as low exposure. Usually Cmax stands for the peak of the concentration-time curve. Broadly, the Tmax is the time from dosing to the highest level. The bioavailability is the share of a dose that reaches the circulation, judged against a reference dose that is usually intravenous. Read a high bioavailability as much systemic uptake. For `Cc1cccc(Cl)c1C(=O)N[C@@H](Cc1ccc(-c2c(C)n(C)c(=O)n(C)c2=O)cc1)C(=O)O`, the pKa at 16 h, 10000 µM in series [1] was 3.4. For the same molecule, the solubility at 1.5 h, 30 µM in series [2] is 95.4 µg/mL (≈ 203 µM); in series [3], 94.7 µg/mL (≈ 202 µM); in series [4] it was 91.9 µg/mL (≈ 196 µM). Besides, in [5], the logD at 16 h, 10000 µM was -1.1. For the same molecule, in series [6], the Papp A→B at 1 h, 5 µM came to 1.3 ×10⁻⁶ cm/s. Besides, in series [7], the AUC(0-t) at 24 h was 616 ng·h/mL. In addition, the highest level in series [8] (Cmax) was 425 ng/mL. Further, the Tmax in [9] was 1 h. The half-life in [10] was 0.67 h. This molecule also registered a bioavailability in series [11] of less than 1%.

In general, AUC(0-inf) refers to the area under the concentration-time curve extrapolated to infinity. Higher therefore signals more exposure. In series [1], `COc1cc2ncnc(Nc3ccc(F)c(Cl)c3)c2cc1OC` gave a pKa at 16 h, 10000 µM of 4.51. The solubility at 1.5 h, 30 µM is 1.3 µg/mL (≈ 3.9 µM) in series [2]; 1.53 µg/mL (≈ 4.58 µM) in [12]; 49.4 µg/mL (≈ 148 µM) in series [3]; 23.6 µg/mL in [13]; 51.7 µg/mL (≈ 155 µM) in [4]; 63.9 µg/mL in [14]. In series [15], the half-life is 1.9 h. Also, the AUC(0-t) in series [16] amounted to 25500 ng·h/mL. Also, in [17], the AUC(0-inf) worked out at 26300 ng·h/mL. The molecule also yielded a Cmax in [18] of 7440 ng/mL.

By IC50 is commonly meant the concentration at which inhibition is half-maximal. Read a high IC50 as lower potency. The term Papp denotes the rate of passage across a membrane or cell layer, normalised by area and donor concentration. The molecule `COc1cc2ncnc(Nc3ccc(O[C@H]4CO[C@H]5[C@@H]4OC[C@@H]5O)c(Cl)c3)c2cc1OC` returned an IC50 in [19] of 5.3 nM. In addition, the pKa at 16 h, 10000 µM in [1] is 5. Further, the solubility at 1.5 h, 30 µM in series [2] is 19.8 µg/mL (≈ 43.1 µM); in [12] it was 45.4 µg/mL (≈ 98.7 µM); in series [3] it was 87.9 µg/mL (≈ 191 µM); in series [13] it was 56 µg/mL; in [4] it was 65.4 µg/mL (≈ 142 µM); in series [14] it was 80.8 µg/mL. The Papp at 16 h, 20000 µM in series [20] amounted to 7.45 ×10⁻⁶ cm/s. Moreover, the half-life in [15] and in [21] was 1.19 h throughout. In series [22], this molecule yielded an AUC(0-t) of 44500 ng·h/mL. Moreover, the AUC(0-inf) in [23] turned out to be 44500 ng·h/mL. In [24], this molecule registered a Cmax of 30100 ng/mL.

A word on the AUC: it is concentration integrated over time. As for `Cc1cccc(Cl)c1C(=O)N[C@@H](Cc1ccc(-c2c(C)n(C)c(=O)n(C)c2=O)cc1)C(=O)O[C@H]1CO[C@H]2[C@@H]1OC[C@@H]2O`, the pKa at 16 h, 10000 µM in [1] was determined as 7.9. Also, the values for the solubility at 1.5 h, 30 µM in series [2], in series [3] and in series [4] were 107 µg/mL (≈ 179 µM), 126 µg/mL (≈ 210 µM) and 99.6 µg/mL (≈ 167 µM), respectively. The Papp at 16 h, 20000 µM in series [20] was found to be 1.68 ×10⁻⁶ cm/s. This molecule showed a pH-dependent lipophilicity (logD) at 16 h, 10000 µM in series [5] of 1.2. The Papp A→B at 1 h, 5 µM in [6] was 2.5 ×10⁻⁶ cm/s. Moreover, the AUC in series [25] worked out at 2100 ng·h/mL. The maximum concentration (Cmax) in series [26] is 3193 ng/mL. The Tmax in series [27] amounted to 0.25 h. Also, in series [28], the t1/2 was found to be 1.63 h. Besides, the bioavailability in series [29] amounted to 12%. Moreover, the Drug metabolism turned out to be 500 ng/mL in series [30], 200 ng/mL in series [31], 200000 ng/g in series [32] and 100000 ng/g in series [33].
